Assay results reported in patent US20110053849A1 (priority 2006, published 2011).

Experiments:
LITAF promoter = assay: Luciferase reporter assay of LITAF promoter activity in p53-null H1299 cells; assay type: cell-based, human; conditions: for Luciferase activity with peptide alone: peptide alone without pGLP700, FIG. 7 #5 and #6
Procedure: Luciferase assay. […] Cells were then incubated overnight in appropriate media (DMEM or RPMI 1640)+10% FBS at 37° C., in a humidified atmosphere containing 5% CO2. The β-galactosidase gene was included in all transfections. Cells were harvested and the luciferase activity of each lysate was measured (Turner Designs luminometer model TD-20/20) using a commercial kit (luciferase reporter assay system, Promega) according to the protocol provided by the manufacturer. Finally, the data were normalized to β-galactosidase expression.
The promoter activity of pGLP700 alone was assigned the maximal value of 100%. […] Deletions, indicated by ̂, correspond to aa 101-167 in construct A12, aa 167-234 in B1, aa 235-300 in C6 and aa 156-178 in D10. Construct p53LFB12 contained only 7 aa (KQSQHMT [SEQ ID NO: 1]) from the region (aa 164-170).
The proteins extracted from each transfection of construct plus pGLP700 compared to the transfection of pGLP700 alone in p53-null H1299 cells were measured by luciferase assay. Triplicate assays were performed. […] Construct C6, containing aa 167 and its flanking sequences, reduced LITAF promoter activity to 22% of control even though it lacked aa 235-300.
Furthermore, short peptides (pep12) that contain 7 residues (aa 164-170) (KQSQHMT [SEQ ID NO: 1]) corresponding to p53LFB12 and another peptide (pepSC) with reverse sequence of pep12 as a negative control, were synthesized and analyzed using the luciferase assay. Cultures of p53-null H1299 cells (5×10^6) were transfected with pGLP700 (#2-4, #7-12), pGLP550 (#13 and 14) or pGLP500 (#15 and 16) plus p53LFB12 (#4) or plus 12REV (#3) as control using Lipofactamine 2000 (Invitrogen) for 3 hours, washed with PBS and further transfected with peptide, 10 μg/ml (#10, 12, 14 and 16), then cells were incubated in appropriate medium at 37° C. overnight. Luciferase activities of the lysates from each culture of treated cells were measured. The extracts from untreated (#1), pepSC alone (#5), pep12 alone (#6), pGLP700 alone (#2 and 11, pGLP550 alone (#13) or pGLP500 alone (#15) were used as controls. Triplicate assays were performed.

LITAF = assay: Western blot of LPS-induced LITAF gene expression in human monocytes; assay type: cell-based; conditions: 0.1 μg/ml E. coli LPS 3 hours, then peptide 16 hours, FIG. 8B lane 5
Procedure: Western blot analysis. […] Cells were then incubated overnight in RPMI 1640 medium with 10% FBS at 37° C., in a humidified atmosphere containing 5% CO2. The proteins from the treated cells were extracted with lysis buffer (Promega) plus a cocktail of […] (Sigma) following the manufacturer's instructions and suspended in SDS sample buffer, heated at 95° C. for 5 min, then applied to SDS-polyacrylamide gels and detected by Western blotting.
(§1) To further examine the effects of pep12 on LPS-induced LITAF gene expression and LITAF-dependent TNF-α production, analyses of Western blot and ELISA were performed. Human monocytes (1×10^6) were stimulated with 0.1 μg/ml E. coli LPS for 3 hours and washed with PBS prior to treatment with peptides for 16 hours with either pep12 (#5) or pepSC as control (#4) using a Chariot kit (Active motif, Carlsbad, Calif.) or transfected with no DNA (#1) or with pGLP700 DNA (#2) as negative controls or with p53-1 DNA (#3) as a positive control. The cells were incubated in appropriate medium at 37° C., 5% CO2 overnight. The supernatants from cell cultures were measured by ELISA (Abraxis, Warminster, Pa.) and the extracts were detected by Western blot with antibodies against LITAF and actin (as a control).

human cytokines = assay: Bioplex human monocyte cytokine assay; assay type: cell-based; conditions: E. coli LPS + pep12 (10 µg or 100 υg)
Procedure: This assay was performed to determine the effectiveness of the peptide of the present invention [pep12: SEQ ID NO.: 1] to inhibit various human cytokines. The assay performed was a human monocyte assay well known to those practiced in the art. The kit used here (trade name Bioplex) was supplied by Bio-Rad (Hercules, Calif.). Other commercially available assays are known and suitable for use in the assay described here.
Bar (1) is the carrier solution alone (chariot alone); bar (2) is E. coli LPS stimulant; bar (3) is E. coli LPS+pepSC (scramble peptide); bar (4) is E. coli LPS+pep12 (10 υg); bar (5) is E. coli LPS+pep12 (100 υg). The cytokines tested include Human (Hu) IL-2, Hu Il-5, Hu Il-7, Hu Il-12 Hu Eotaxin, Hu Il-13, Hu-PDGF-β, Hu IL-1β, Hu-15, Hu IFN-γ, Hu IP-10, Hu IL-6, Hu RANTES, Hu TNF-α, Hu Il-1ra and Hu VEGF.

TNF-α = assay: ELISA of LPS-induced TNF-α production in human monocytes; assay type: cell-based; conditions: 0.1 μg/ml E. coli LPS 3 hours, then peptide 16 hours, FIG. 8A
Procedure: ELISA. Human monocytes (1×10^6) were stimulated with 0.1 μg/ml E. coli LPS for 3 hrs, washed with PBS, then further treated with peptides by Chariot kit (Active Motif, Carlsbad, Calif.). Cells were then incubated overnight in RPMI 1640 medium supplemented with 10% FBS at 37° C., in a humidified atmosphere containing 5% CO2. Culture supernatants were harvested and centrifuged at 1,500×g to remove cell debris, then concentrations of human TNF-α in the supernatant of each treated or untreated control cell condition were measured by ELISA (Abraxis, Warminster, Pa.). The ELISA immunoreactivity was quantified using a VerSaDoc Imaging System (BIO-RAD) and graphed.
as §1, with “The cells were incubated in appropriate medium at 37° C., 5% CO2 overnight.” left out

[1] = peptide 10 μg/ml plus pGLP700, FIG. 7 #7 and #10

Substance | LITAF promoter activity (LITAF promoter; pep12 10 μg/ml plus pGLP500, FIG. 7 #16 vs #15) | LITAF promoter activity, % of control (LITAF promoter; pep12 10 μg/ml plus pGLP550, FIG. 7 #14 vs #13) [%] | LITAF promoter activity, % of control (LITAF promoter; pep12 10 μg/ml plus pGLP700, FIG. 7 #12 vs #11) [%] | LITAF promoter activity (untreated pGLP700 #2 = 100%) (LITAF promoter; peptide 0.1 μg/ml plus pGLP700, FIG. 7 #8) [%] | LITAF promoter activity (untreated pGLP700 #2 = 100%) (LITAF promoter; [1]) [%] | Luciferase activity with peptide alone (LITAF promoter) [%] | LITAF promoter activity (untreated pGLP700 #2 = 100%) (LITAF promoter; peptide plus pGLP700, FIG. 7 #9, concentration not clearly printed) [%] | LPS-induced LITAF gene expression (LITAF) | Concentration of active cytokine: Hu IL-13 (human cytokines) | Concentration of active cytokine: Hu PDGF-β (human cytokines) | Concentration of active cytokine: Hu RANTES (human cytokines) | Concentration of active cytokine: IL-2, IL-5, IL-7, IL-12, Eotaxin, IL-1β, IL-15, IFN-γ, IP-10, IL-6, TNF-α, IL-1ra, VEGF (human cytokines; FIGS. 9A-9C) | LPS-induced TNF-α production, % of control (TNF-α)
KQSQHMT [pep12] | did not affect LITAF promoter activity | 23 | 15 | 66 | 15 | 2.3 | 40 | inhibition of LPS-induced LITAF gene expression | only minor reductions | only minor reductions | only minor reductions | significant reduction | ≤ 70%
SKMQQTH [pepSC, reference compound] |  |  |  |  | 95 | 1.5 |  |  |  |  |  |  | could not affect LPS-induced TNF-α secretion
